Experimental findings from US20240123078A1, “COMPOUNDS AND METHODS FOR MODULATING IMMUNE-RELATED PROTEINS” (Vividion Therapeutics, Inc., priority 2019, published 2024) are described below.

Molecules are shown by their SMILES. Where only a bound is given, the exact number is not on record here.

Data set [1] concerns the target T1, PTPN11 Tyrosine-protein phosphatase non-receptor type 11 C259 (Q06124) (Homo sapiens, UniProt Q06124).
T1 construct: endogenous in cells; host or cells: primary human T cells
T1 sequence (Q06124 1-593): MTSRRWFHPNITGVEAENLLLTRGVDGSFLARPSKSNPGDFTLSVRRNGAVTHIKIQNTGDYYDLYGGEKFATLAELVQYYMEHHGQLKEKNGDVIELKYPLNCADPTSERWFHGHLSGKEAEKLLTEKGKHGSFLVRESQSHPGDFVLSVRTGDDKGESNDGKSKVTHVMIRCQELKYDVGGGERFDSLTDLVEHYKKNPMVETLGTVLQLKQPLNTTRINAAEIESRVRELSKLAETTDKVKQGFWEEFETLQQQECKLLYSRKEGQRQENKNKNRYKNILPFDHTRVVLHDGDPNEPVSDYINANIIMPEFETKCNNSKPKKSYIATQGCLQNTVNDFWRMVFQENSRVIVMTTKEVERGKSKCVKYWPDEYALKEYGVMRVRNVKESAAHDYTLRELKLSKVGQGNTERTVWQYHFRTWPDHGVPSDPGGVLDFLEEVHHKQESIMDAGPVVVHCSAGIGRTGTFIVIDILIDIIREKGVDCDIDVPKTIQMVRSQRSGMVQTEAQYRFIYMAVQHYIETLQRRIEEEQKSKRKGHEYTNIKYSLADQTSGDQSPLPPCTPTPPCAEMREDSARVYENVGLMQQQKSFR
Nature of the data set: Cysteine reactivity ABPP. The format is binding. How it is done:
(§1) Activated or expanded primary human T cells were re-suspended in RPMI (1×10^6 cells/mL) containing 10% fetal bovine serum (FBS), penicillin (100 U/mL), streptomycin ([…]), and L-glutamine (2 mM). The cells were treated with DMSO or compounds for 3 h, pelleted (524 g, 5 min), washed with PBS, and lysed by sonication (2×8 pulses). Soluble and particulate proteomic fractions were separated by ultracentrifugation (100,000 g, 45 min), and protein concentration was normalized to 1.7 mg/mL using a standard DC protein assay (Bio-Rad). The resulting proteomes were analyzed by competitive isotopic Tandem Orthogonal Proteolysis Activity-Based Protein Profiling (isoTOP-ABPP).
(§2) The heavy/light isoTOP-ABPP ratios (R values) for each unique peptide (DMSO/compound treated) were quantified with in-house CIMAGE software (Weerapana et al., 2010) using default parameters (3 MS1 acquisitions per peak and signal to noise threshold set to 2.5). Site-specific engagement of cysteine residues was assessed by blockade of IA-alkyne probe labeling. […] Ratios for unique peptide sequences were calculated for each experiment; overlapping peptides with the same modified cysteine (e.g., different charge states, elution times or tryptic termini) were grouped together and the median ratio was reported as the final ratio (R). Additionally, ratios for peptide sequences containing multiple cysteines were grouped together. When aggregating data across experimental replicates, the mean of each experimental median R was reported. The peptide ratios reported by CIMAGE were further filtered to ensure the removal or correction of low-quality ratios in each individual dataset. The quality filters applied were the following: removal of half-tryptic peptides, removal of peptides with more than one tryptic miscleaved, removal of peptides with R=20 and only a single MS2 event triggered during the elution of the parent ion, removal of non-unique peptides. Further filtering was then performed as described below for each experiment type.
(§3) Samples (500 μL, 1.7 mg/mL) were treated with iodoacetamide desthiobiotin (IA-DTB, 5 μL of 10 mM stock in DMSO, final concentration: 100 μM) for 1 h at ambient temperature. Ice-cold MeOH (500 μL) and CHCl3 (200 μL) were then added, the mixture was vortexed and centrifuged (10,000 g, 10 min, 4° C.) to afford a protein disc at the interface of CHCl3 and aqueous layers. Both layers were aspirated without perturbing the disk, which was re-suspended in cold methanol (500 μL) and CHCl3 (200 μL) by sonication. The proteins were pelleted (10,000 g, 10 min, 4° C.), and the resulting pellets were re-suspended in a buffer (90 μL) containing 9M urea, 10 mM DTT and 50 mM triethylammonium bicarbonate ( 1/20 dilution of 1.0 M stock solution, pH 8.5) by thorough pipetting up and down. The resulting mixture was heated at 65° C. for 20 min. Sample was cooled to room temp, iodoacetamide (10 μL, 500 mM solution in H2O) was added, and the samples were incubated at 37° C. for 30 min with shaking.
(§4) At individual TMT experiment level, the following filters were applied to remove low-quality peptides: removal of non-unique peptides; removal of half-tryptic peptides; removal of peptides with more than one internal miscleaved site; removal of peptides with low (<10,000) sum of reporter ion intensities for control channels, and peptides with high variation between the replicate control channels (coefficient of variance >0.5). R values (compound-treated vs. DMSO-treated) for each peptide entry were calculated using the reporter ion intensities of DMSO and compound treated TMT channels for each treatment group with a maximum ratio cap of 20. […]

Data set [2] has as its target T2, JAK1 Tyrosine-protein kinase JAK1 C810, C817 (P23458) (Homo sapiens, UniProt P23458).
T2 construct: endogenous in cells; host or cells: primary human T cells
Put plainly: Cysteine reactivity ABPP. The format is binding. How it is done: as §1, §2, §3, §4

Data set [3] addresses T3, PFKFB3 6-phosphofructo-2-kinase/fructose-2,6-bisphosphatase 3 C155 (Q16875) (Homo sapiens, UniProt Q16875).
T3 construct: endogenous in cells; host or cells: primary human T cells
Put plainly: Cysteine reactivity ABPP. The format is binding. How it is done:
as §1, §2, §3, §4

Data set [4] addresses T4, STAT3 Signal transducer and activator of transcription 3 C259 (P40763) (Homo sapiens, UniProt P40763).
T4 construct: endogenous in cells; host or cells: primary human T cells
Put plainly: Cysteine reactivity ABPP. Format: binding. How it is done:
as §1, §2, §3, §4

Data set [5] addresses T5, CBLB E3 ubiquitin-protein ligase CBL-B C686 (Q13191) (Homo sapiens, UniProt Q13191).
T5 construct: endogenous in cells; host or cells: primary human T cells
Put plainly: Cysteine reactivity ABPP. The format is binding. On the procedure: as §1, §2, §3, §4

Data set [6] addresses T6, ACAT1 Acetyl-CoA acetyltransferase, mitochondrial C119 (P24752) (Homo sapiens, UniProt P24752).
T6 construct: endogenous in cells; host or cells: primary human T cells
T6 sequence (P24752 34-427): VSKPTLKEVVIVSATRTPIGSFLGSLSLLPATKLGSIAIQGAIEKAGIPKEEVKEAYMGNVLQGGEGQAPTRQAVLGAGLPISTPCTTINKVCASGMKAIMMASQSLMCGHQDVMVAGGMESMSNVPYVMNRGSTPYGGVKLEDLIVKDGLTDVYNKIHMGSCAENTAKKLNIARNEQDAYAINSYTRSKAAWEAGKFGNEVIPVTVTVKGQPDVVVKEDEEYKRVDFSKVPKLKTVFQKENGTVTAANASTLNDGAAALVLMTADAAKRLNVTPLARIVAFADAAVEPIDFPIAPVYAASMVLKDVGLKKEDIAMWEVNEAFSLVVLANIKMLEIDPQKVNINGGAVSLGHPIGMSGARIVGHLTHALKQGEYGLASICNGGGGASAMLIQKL
Put plainly: Cysteine reactivity ABPP. The format is binding. On the procedure: as §1, §2, §3, §4

In data set [7] the target is T7, STAT3 Signal transducer and activator of transcription 3 C712, C718 (P40763) (Homo sapiens, UniProt P40763).
T7 construct: endogenous in cells; host or cells: primary human T cells
Nature of the data set: Cysteine reactivity ABPP. Format: binding. How it is done:
as §1, §2, §3, §4

Data set [8] addresses T8, TYK2 Non-receptor tyrosine-protein kinase TYK2 C838 (P29597) (Homo sapiens, UniProt P29597).
T8 construct: endogenous in cells; host or cells: primary human T cells
Nature of the data set: Cysteine reactivity ABPP. Format: binding. On the procedure: as §1, §2, §3, §4

Another data set relates to primary human T cells. Nature of the data set: Multidimensional screen for inhibition of T cell activation. The format is cell-based. How it is done: Non-tissue culture treated 96-well plates are pre-coated with αCD3 (5 μg/mL) and αCD28 antibodies (2 μg/mL) in PBS (100 μL/well) and left at 4° C. overnight. Freshly isolated T cells are re-suspended in RPMI media supplemented with 10% FBS, L-glutamine (2 mM), penicillin (100 U/mL), and streptomycin (100 μg/mL) at 2×10^6 cells/mL. Compound stocks (200×) in DMSO are diluted to 2× stocks in the working RPMI media in another 96-well plate. The pre-coated 96-well treatment plates are washed with PBS (2×200μL), T cells (100 μL/well, 2×10^5 cells/well) are then added to the wells, followed by the addition of 2× compound stocks in RPMI media (100 μL). […]
The levels of secreted IL2, IFNγ and TNFα after incubating T cells in the presence of DMSO or electrophilic compounds under TCR-stimulating conditions are measured using DuoSet ELISA cytokine kits (R&D Systems) in clear microplates (R&D Systems) according to manufacturer's instructions and read using a CLARIOstar (BMG Labtech) plate reader (450 nm).
A multidimensional screen can be preformed of a focused library of structurally elaborated electrophilic small molecules to identify compounds that suppress T cell activation at low-μM concentrations without causing cytotoxicity. […] The viability of T cells can be monitored by flow cytometry using near-IR live-dead stain.

Another data set concerns the target T9, BIRC2 (C45) (Homo sapiens, UniProt Q13490).
T9 construct: endogenous in cells; host or cells: primary human T cells
Put plainly: isoTOP-ABPP of elaborated compound data (DMF datasets). Format: binding. The conditions noted are these: maximal ratio of 20 = ≥95% reduction in MS1 peak area. How it is done:
as §1
(§5) The heavy/light isoTOP-ABPP ratios (R values) for each unique peptide (DMSO/compound treated) were quantified with in-house CIMAGE software (Weerapana et al., 2010) using default parameters (3 MS1 acquisitions per peak and signal to noise threshold set to 2.5). Site-specific engagement of cysteine residues was assessed by blockade of IA-alkyne probe labeling. […] Ratios for unique peptide sequences were calculated for each experiment; overlapping peptides with the same modified cysteine (e.g., different charge states, elution times or tryptic termini) were grouped together and the median ratio was reported as the final ratio (R). […]

In a further data set the target is T10, CASP2 (C366, C370) (Homo sapiens, UniProt P42575).
T10 construct: Soluble and particulate proteomic fractions were separated by ultracentrifugation; endogenous in cells; host or cells: primary human T cells
T10 sequence (P42575 1-452): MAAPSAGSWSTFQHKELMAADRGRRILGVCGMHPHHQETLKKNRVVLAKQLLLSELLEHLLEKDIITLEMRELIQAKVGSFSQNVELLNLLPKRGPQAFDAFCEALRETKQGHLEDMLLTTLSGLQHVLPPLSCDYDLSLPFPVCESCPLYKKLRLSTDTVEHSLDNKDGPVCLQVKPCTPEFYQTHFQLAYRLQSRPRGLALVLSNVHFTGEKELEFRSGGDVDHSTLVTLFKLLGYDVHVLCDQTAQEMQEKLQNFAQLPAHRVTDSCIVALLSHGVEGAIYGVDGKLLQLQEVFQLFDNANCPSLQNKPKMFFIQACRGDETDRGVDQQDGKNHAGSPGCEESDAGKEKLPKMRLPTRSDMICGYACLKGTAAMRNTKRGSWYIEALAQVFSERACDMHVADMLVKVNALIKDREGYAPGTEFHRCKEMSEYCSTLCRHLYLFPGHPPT
Described as above. Format: binding. As to conditions: maximal ratio of 20 = ≥95% reduction in MS1 peak area. On the procedure:
as §1, §5

T7 sequence (P40763 whole entry, one chain of several): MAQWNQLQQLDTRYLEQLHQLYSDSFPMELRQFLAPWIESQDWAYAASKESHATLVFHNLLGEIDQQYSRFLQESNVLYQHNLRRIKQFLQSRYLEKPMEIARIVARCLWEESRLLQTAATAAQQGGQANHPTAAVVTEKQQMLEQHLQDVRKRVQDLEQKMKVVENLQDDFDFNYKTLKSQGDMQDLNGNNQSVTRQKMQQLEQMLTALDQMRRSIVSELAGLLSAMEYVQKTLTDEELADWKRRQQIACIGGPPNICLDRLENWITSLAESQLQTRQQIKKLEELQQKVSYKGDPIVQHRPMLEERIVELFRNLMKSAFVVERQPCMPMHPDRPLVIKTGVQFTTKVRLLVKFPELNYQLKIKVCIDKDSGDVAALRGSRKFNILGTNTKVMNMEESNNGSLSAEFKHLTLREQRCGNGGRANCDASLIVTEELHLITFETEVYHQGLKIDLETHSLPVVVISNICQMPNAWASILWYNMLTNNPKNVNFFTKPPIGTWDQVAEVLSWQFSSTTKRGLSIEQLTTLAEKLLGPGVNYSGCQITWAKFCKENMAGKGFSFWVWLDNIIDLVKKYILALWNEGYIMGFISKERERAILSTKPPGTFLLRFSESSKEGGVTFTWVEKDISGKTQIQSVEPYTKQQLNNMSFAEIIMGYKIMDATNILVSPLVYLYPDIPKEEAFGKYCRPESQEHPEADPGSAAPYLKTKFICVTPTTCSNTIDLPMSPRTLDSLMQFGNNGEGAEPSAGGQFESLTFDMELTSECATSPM
T4 sequence (P40763 whole entry, one chain of several): as above
T2 sequence (P23458 whole entry): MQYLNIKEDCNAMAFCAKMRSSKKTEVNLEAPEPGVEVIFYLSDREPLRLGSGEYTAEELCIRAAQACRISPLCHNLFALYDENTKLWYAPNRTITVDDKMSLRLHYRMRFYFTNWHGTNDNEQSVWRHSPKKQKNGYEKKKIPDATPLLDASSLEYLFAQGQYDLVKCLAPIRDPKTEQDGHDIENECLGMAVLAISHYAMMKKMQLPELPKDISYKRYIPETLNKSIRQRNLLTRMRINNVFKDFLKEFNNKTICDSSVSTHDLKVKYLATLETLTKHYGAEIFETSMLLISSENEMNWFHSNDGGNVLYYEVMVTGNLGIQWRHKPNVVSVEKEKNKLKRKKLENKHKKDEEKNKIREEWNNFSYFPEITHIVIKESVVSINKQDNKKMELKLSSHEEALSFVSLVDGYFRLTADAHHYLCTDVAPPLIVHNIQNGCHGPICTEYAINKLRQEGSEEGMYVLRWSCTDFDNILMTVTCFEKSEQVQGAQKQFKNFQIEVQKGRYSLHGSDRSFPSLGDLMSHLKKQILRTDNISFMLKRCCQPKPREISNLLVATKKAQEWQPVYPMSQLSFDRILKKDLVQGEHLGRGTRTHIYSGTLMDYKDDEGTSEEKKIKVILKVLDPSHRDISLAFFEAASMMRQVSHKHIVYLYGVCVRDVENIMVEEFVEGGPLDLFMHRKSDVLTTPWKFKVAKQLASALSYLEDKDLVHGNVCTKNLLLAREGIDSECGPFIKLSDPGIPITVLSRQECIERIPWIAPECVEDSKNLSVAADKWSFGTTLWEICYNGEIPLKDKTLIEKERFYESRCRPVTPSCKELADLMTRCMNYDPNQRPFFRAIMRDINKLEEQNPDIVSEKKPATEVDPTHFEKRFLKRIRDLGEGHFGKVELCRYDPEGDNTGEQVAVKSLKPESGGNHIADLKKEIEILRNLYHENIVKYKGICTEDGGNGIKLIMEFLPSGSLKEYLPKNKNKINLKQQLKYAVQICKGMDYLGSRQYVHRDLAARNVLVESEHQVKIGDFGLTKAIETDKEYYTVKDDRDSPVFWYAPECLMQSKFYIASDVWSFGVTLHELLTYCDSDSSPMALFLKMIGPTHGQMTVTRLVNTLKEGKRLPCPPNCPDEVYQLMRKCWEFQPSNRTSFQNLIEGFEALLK
T8 sequence (P29597 whole entry): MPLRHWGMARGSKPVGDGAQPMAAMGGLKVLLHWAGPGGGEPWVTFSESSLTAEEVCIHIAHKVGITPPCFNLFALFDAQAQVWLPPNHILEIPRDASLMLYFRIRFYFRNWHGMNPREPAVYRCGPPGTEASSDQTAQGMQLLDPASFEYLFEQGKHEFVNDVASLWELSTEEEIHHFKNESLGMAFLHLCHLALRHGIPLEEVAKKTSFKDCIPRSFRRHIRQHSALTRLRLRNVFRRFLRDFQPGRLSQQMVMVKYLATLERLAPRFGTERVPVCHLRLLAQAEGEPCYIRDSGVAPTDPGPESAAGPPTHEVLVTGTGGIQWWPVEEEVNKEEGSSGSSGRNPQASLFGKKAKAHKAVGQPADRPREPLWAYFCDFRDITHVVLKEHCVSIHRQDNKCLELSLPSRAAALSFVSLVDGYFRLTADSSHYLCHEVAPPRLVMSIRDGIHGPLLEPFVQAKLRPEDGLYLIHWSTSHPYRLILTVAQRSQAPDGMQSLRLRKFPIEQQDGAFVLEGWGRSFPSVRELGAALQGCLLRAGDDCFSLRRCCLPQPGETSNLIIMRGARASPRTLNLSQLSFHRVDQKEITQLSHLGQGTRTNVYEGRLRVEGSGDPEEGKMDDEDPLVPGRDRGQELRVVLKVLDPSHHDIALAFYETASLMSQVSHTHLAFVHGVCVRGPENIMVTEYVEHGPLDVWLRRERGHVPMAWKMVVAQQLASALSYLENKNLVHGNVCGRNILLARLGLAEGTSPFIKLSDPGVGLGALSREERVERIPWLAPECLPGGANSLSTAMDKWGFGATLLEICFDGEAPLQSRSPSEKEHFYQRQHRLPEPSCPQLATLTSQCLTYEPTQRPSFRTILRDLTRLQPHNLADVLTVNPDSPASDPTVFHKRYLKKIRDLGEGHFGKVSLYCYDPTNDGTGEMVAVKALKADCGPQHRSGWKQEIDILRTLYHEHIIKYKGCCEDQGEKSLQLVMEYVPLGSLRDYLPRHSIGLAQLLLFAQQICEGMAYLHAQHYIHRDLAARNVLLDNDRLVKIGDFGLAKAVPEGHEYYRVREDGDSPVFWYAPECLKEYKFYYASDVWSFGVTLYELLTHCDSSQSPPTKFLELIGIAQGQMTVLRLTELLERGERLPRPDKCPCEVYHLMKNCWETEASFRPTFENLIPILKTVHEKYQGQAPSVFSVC
T5 sequence (Q13191 whole entry): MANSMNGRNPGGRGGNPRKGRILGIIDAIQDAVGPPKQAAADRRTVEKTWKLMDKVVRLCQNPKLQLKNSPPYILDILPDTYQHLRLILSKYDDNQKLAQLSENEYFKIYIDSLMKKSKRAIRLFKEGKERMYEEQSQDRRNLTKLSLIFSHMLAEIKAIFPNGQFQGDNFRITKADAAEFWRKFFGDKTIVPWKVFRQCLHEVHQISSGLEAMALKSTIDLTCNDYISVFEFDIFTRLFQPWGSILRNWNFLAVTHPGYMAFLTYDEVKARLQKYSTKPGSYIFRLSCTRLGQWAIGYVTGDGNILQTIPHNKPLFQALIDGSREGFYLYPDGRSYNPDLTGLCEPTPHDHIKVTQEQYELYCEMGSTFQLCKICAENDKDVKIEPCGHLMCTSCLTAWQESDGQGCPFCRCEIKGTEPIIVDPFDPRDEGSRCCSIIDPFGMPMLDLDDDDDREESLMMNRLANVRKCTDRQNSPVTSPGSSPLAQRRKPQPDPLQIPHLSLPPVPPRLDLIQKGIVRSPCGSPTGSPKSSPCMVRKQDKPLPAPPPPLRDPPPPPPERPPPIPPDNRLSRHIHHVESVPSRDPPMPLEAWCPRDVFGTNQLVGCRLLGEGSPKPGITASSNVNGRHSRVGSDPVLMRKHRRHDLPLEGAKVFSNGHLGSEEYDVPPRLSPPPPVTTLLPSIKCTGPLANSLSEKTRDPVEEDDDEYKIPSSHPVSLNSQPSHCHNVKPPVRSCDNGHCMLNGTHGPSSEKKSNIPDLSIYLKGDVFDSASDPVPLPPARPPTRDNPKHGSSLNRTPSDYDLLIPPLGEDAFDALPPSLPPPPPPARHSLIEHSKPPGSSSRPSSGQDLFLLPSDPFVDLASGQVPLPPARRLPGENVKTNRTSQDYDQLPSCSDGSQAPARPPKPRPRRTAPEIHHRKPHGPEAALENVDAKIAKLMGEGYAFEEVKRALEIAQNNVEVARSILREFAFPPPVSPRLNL
T3 sequence (Q16875 whole entry, one chain of several): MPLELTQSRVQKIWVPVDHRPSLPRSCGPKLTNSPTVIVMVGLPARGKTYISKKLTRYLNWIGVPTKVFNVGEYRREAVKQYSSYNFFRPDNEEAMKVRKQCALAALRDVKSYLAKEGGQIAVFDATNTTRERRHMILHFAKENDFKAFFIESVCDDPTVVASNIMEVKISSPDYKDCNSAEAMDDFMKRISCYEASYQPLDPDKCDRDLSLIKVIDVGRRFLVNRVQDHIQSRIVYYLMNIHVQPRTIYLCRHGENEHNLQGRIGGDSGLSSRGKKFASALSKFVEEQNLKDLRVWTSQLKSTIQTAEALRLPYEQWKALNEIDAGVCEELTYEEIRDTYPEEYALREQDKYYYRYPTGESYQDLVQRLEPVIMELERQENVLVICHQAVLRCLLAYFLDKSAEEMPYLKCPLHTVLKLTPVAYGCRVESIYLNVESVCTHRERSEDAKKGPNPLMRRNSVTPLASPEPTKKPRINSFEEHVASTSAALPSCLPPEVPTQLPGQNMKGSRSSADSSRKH

As to `C=CC(=O)N(Cc1cccc(Cl)n1)c1ccc(C(=O)Nc2ccccc2)nc1` [Compound L4], the “Cysteine reactivity proteomic data” value in [1] (100 μM) is 50.0993; in [1] (500 μM), 72.8049; in data set [2] (100 μM), 94.3358; in data set [2] (500 μM) it was 99.489; in data set [3] (100 μM) it was 81.7564; in [3] (500 μM) it was 89.0944. Further, the “Cysteine reactivity proteomic data” value in data set [4] (100 μM) is given as 58.1986; in [4] (500 μM), 57.1888; in data set [5] (100 μM), 4.7619; in [5] (500 μM) it was 84.7455; in data set [6] (100 μM) it was −14.9577; in data set [6] (500 μM), 58.3081. Besides, the “Cysteine reactivity proteomic data” value in data set [7] (100 μM) is 42.1791; in data set [7] (500 μM), 80.6157; in [8] (100 μM), 96.4386; in [8] (500 μM) it was 98.2637.
Consider `CN(C)C=O` [DMF], for which the “suppress T cell activation” value in the data set with primary human T cells (anti-CD3/anti-CD28 activation, measured 24 h later by reductions in secreted IL-2, IFN-γ and CD69, CD25 expression) was greater than 65%. For the same molecule, in the data set with primary human T cells (flow cytometry, near-IR live-dead stain), the “viability of T cells” value is on record as greater than 85%. For the same molecule, the “isoTOP-ABPP ratio R (DMSO/compound treated)” value on BIRC2 (C45) is listed as 20; on CASP2 (C366, C370) it was 20.
